{"source": "patent US12029814B1", "about": "“Formulation of ear drops and methods for delivery thereof for treating upper respiratory infections” (priority 2023, dated 2024)", "type_in_all_cases": "cell-based", "key": {"SARS-COV-2 BA.5": {"system": "SARS-COV-2 BA.5"}, "SARS-COV-2 BA.1": {"system": "SARS-COV-2 BA.1"}, "[1]": {"system": "original WA1 viral strain of SARS-COV-2", "assay": "in vitro infectivity of epithelial cells expressing ACE-2 and TMPRSS-2, virus-NP protein in culture media", "settings": "MOI 0.01"}, "SARS-COV-2 XBB1.5": {"system": "SARS-COV-2 XBB1.5"}, "SARS-COV-2 BA.2": {"system": "SARS-COV-2 BA.2"}, "SARS-COV-2 XBB": {"system": "SARS-COV-2 XBB"}}}
{"substance": "hemin", "values": [{"measurement": "replication of SARS-COV-2 BA.5", "setting": "SARS-COV-2 BA.5", "value": "significantly suppressed replication"}, {"measurement": "cellular protection against SARS-COV-2 BA.1 infection", "setting": "SARS-COV-2 BA.1", "value": "protected cells"}, {"measurement": "inhibition of SARS-COV-2 BA.1 (dose response)", "setting": "SARS-COV-2 BA.1", "value": "dose-dependent inhibition"}, {"measurement": "SARS-COV-2 infection, original WA1 viral strain", "setting": "[1]", "value": "markedly suppressed"}, {"measurement": "replication of SARS-COV-2 XBB1.5", "setting": "SARS-COV-2 XBB1.5", "value": "significantly suppressed replication"}, {"measurement": "replication of SARS-COV-2 BA.2", "setting": "SARS-COV-2 BA.2", "value": "significantly suppressed replication"}, {"measurement": "replication of SARS-COV-2 XBB", "setting": "SARS-COV-2 XBB", "value": "significantly suppressed replication"}]}
